# According to patent US20120295920A1, “5-AMINO-4-HYDROXYPENTOYL AMIDES” (priority 2009, published 2012):
# Like-named read-outs stand apart in the source and are kept apart here.
# Columns and labels:
# [1] = test system: HIV-1 Strain B (M046I, I050V); assay: microbe, parasite or virus in culture; type: cell-based; details: clinical isolate Strain B; read-out: B EC50
# Procedure: (§1) MT4-LTR-EGFP cells were obtained by transfecting MT4 cells with a selectable construct encompassing the sequences coding for the HIV long terminal repeat (LTR) as a promoter for the expression of enhanced green fluorescent protein (EGFP) and subsequent selection of permanently transfected cells.
# (§2) The antiviral activity on different HIV-1 strains, was determined in a cell-based virus replication assay. Here MT4-LTR-EGFP cells (150,000 cells/ml) are infected (multiplicity of infection [MOI] of 0.0025) in the presence or absence of different inhibitor concentrations. Two methodologies for read-out were used, either quantification of GFP-fluoresence on day 3 post-infection, or quantification of cell-viability using rezazurin (as described by Fields, R. D., and M. V. Lancaster (1993) Am. Biotechnol. Lab. 11:48-50) on day 4 post infection.
# (§3) In the following Table, Strains A, B, and C are clinical isolates that include the following protease inhibitor resistance mutations in the protease domain (background mutations are not mentioned).
# [2] = test system: HIV-1 Strain C (G048G/V, V082A); assay: microbe, parasite or virus in culture; type: cell-based; details: clinical isolate Strain C; read-out: C EC50
# Procedure: as §1, §2, §3
# [3] = test system: HIV-1 Strain A (M046I, I084V); assay: microbe, parasite or virus in culture; type: cell-based; details: clinical isolate Strain A; read-out: A EC50
# Procedure: as §1, §2, §3
# HIV-1 IIIB = assay: 50% HS-Rezazurin: antiviral assay in the presence of 50% human serum, MT-4 cells, resazurin cell viability; type: cell-based
# Procedure: For the Antiviral assay in the presence of 50% human serum MT-4 cells were infected with HIV-1 IIIB at a MOI of 0.001 to 0.01 CCID50/cell in RPMI1640 medium. Following 1 h of incubation, cells were washed and plated into a 96-well plate containing serial dilutions of compound in the presence of 10% fetal calf serum (FCS), or 50% human serum. After 4 days incubation, the EC50 in the presence of 50% human serum was determined by a cell viability assay using resazurin.
# The last column lists the results for the wild-type strain IIB in the presence of 50% human serum MT-4 cells.
# HIV-1 wild-type strain = assay: General antiviral assay, cell-based virus replication in MT4-LTR-EGFP cells, wild-type strain; details: wild-type strain IIIB, MT4-LTR-EGFP cells
# Procedure: as §1, §2
# mock-infected MT4 cells = assay: General toxicity assay on mock-infected MT4 cells with CMV-EGFP reporter (CC50); type: cell-based
# [4] = MT4LTR cells, read-out: TOX-MT4LTR (CC50)
# [5] = mock-infected MT4 cells with CMV-EGFP reporter, read-out: TOX-MT4CMV (CC50)
Structure (SMILES),EC50 [1],EC50 [2],EC50 [3],EC50 (HIV-1 IIIB),EC50 (HIV-1 wild-type strain),CC50 (mock-infected MT4 cells; [4]),CC50 (mock-infected MT4 cells; [5])
COC(=O)NC(C(=O)NC(Cc1ccc(-c2ccc(OC)nc2)cc1)C(O)CC(Cc1ccccc1F)C(=O)NC1c2cc(C)cc(F)c2OCC1O)C(C)(C)C (stereo not drawn) [Compound 101],2.4 nM,1.7 nM,2.5 nM,9.8 nM,2.8 nM,> 32000 nM,–
COc1ccc(-c2ccc(C[C@H](NC(=O)O[C@H]3CO[C@H]4OCC[C@H]43)[C@@H](O)C[C@@H](Cc3ccccc3F)C(=O)N[C@H]3c4cccc(Cl)c4OC[C@H]3O)cc2)cn1 [Compound 75],0.9 nM,0.8 nM,1.4 nM,9.3 nM,2.4 nM,> 32000 nM,–
COc1cccc(C[C@H](C[C@H](O)[C@H](Cc2ccc(-c3ccc(OC)nc3)cc2)NC(=O)O[C@H]2CO[C@H]3OCC[C@H]32)C(=O)N[C@H]2c3cc(Cl)ccc3OC[C@H]2O)c1 [Compound 70],1.6 nM,1.2 nM,1.6 nM,11.4 nM,2.6 nM,> 32000 nM,> 32000 nM
CCc1ncc(-c2ccc(CC(NC(=O)C(NC(=O)OC)C(C)(C)C)C(O)CC(Cc3ccccc3F)C(=O)NC3c4cc(Cl)ccc4OCC3O)cc2)s1 (stereo not drawn) [Compound 14],2.1 nM,1.3 nM,3.5 nM,24.6 nM,3 nM,–,> 32000 nM
COC(=O)N[C@H](C(=O)N[C@@H](Cc1ccc(-c2ccc(OC)nc2)cc1)[C@@H](O)C[C@@H](Cc1cccc(OC(F)(F)F)c1)C(=O)N[C@H]1c2cc(Cl)ccc2OC[C@H]1O)C(C)(C)C [Compound 42],4.1 nM,3.9 nM,7.2 nM,23.7 nM,4.2 nM,> 32000 nM,> 32000 nM
COC(=O)NC(C(=O)NC(Cc1ccc(-c2ccc(N(C)C)nc2)cc1)C(O)CC(Cc1ccccc1F)C(=O)NC1c2cc(F)cc(F)c2OCC1O)C(C)(C)C (stereo not drawn) [Compound 10],2.5 nM,1.7 nM,4 nM,20.1 nM,3.2 nM,–,> 32000 nM
COC(=O)NC(C(=O)NC(Cc1ccc(-c2ccc(N(C)C)nc2)cc1)C(O)CC(Cc1ccccc1F)C(=O)NC1c2ccccc2OCC1O)C(C)(C)C (stereo not drawn) [Compound 7],0.9 nM,0.8 nM,1.5 nM,10.4 nM,1.6 nM,> 49000 nM,> 32000 nM
COc1ccc(-c2ccc(CC(NC(=O)C(NC(=O)CN3CCCC3)C(C)(C)C)C(O)CC(Cc3ccccc3F)C(=O)NC3C(C)CCCC3O)cc2)cn1 (stereo not drawn) [Compound 97],2.8 nM,2 nM,4.7 nM,12.7 nM,5.6 nM,> 32000 nM,–
COC(=O)N[C@H](C(=O)N[C@@H](Cc1ccc(-c2ccc(N(C)C)nc2)cc1)[C@@H](O)C[C@@H](Cc1ccccc1F)C(=O)N[C@H]1c2cc(Cl)cc(F)c2OC[C@H]1O)C(C)(C)C [Compound 60],1.9 nM,1.2 nM,2.6 nM,25.2 nM,4.1 nM,10000 nM,–
COC(=O)NC(C(=O)NC(Cc1ccc(-c2ccc(OC)nc2)cc1)C(O)CC(Cc1cccc(Cl)c1)C(=O)NC1c2ccccc2OCC1O)C(C)(C)C (stereo not drawn) [Compound 3],3.5 nM,2.4 nM,2.3 nM,13.6 nM,2.6 nM,–,> 32000 nM
COC(=O)N[C@H](C(=O)N[C@@H](Cc1ccc(-c2ccc(OC)nc2)cc1)[C@@H](O)C[C@@H](Cc1ccccc1F)C(=O)N[C@H]1c2cccc(F)c2OC[C@H]1O)C(C)(C)C [Compound 50],1.4 nM,1.1 nM,2 nM,6.9 nM,2.8 nM,> 32000 nM,–
COC(=O)N[C@H](C(=O)N[C@@H](Cc1ccc(-c2csc(OC)n2)cc1)[C@@H](O)C[C@@H](Cc1ccccc1F)C(=O)N[C@H]1c2cc(Cl)ccc2OC[C@H]1O)C(C)(C)C [Compound 29],3.4 nM,3.1 nM,6.6 nM,13.7 nM,5.5 nM,–,10000 nM
